Active and inactive are the calls of the source.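 How the source made its calls: active means compounds giving half or more protection of infected cells from virus-caused growth loss, again on retest; inactive means the rest.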 Where a SMILES comes first, the peptide text is derived from it. [ ]: non-standard residue; d: D form. The star is where a group is joined. ξ: configuration not given here. ξF = NC(Cc1ccccc1)C(=O)O; Cbz = O=C(OCc1ccccc1)*; Aib = CC(C)(N)C(=O)O; OBn = c1ccc(CO*)cc1

The assay relates to CEM cells HIV-1 protection, formazan growth assay. Description: NCI AIDS Antiviral Assay. Conditions: for IC50: measured here: growth of uninfected CEM cells. A digest of the protocol:
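Soluble formazan readout of cell growth; CEM cells ± HIV-1; 5 drug concs. ≥50% protection → retest; ≥50% again = moderately active; reproducible 100% = confirmed active.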

With `CC1=NN(c2ccccc2)C(=O)C12[C@H](c1ccccc1)C2(C#N)C#N` (some centres undefined), the EC50 was above 21.9 µM and the IC50 is 3.39 µM.

On to `CCN(CC)c1cc2oc(=O)cc(C)c2cc1NC(=O)c1cc(N)cc(N)c1`, for which the EC50 is above 100 µM and the IC50 was 19.5 µM.

On to `COC(=O)C(Cc1ccc(O)cc1)NC(=O)C(CC(=O)OCc1ccccc1)NC(=O)OCc1ccccc1` (centres undefined) (Cbz-Asp(OBn)-Tyr-OMe; configuration not given here), for which the EC50 was above 200 µM and the IC50 turned out to be 30.9 µM.

For `O=C1C(=Cc2cccc(Br)c2)C(=O)c2ccccc21`, the EC50 was 15.5 µM and the IC50 was found to be 22.9 µM.

In the case of `Cc1cc(S(=O)(=O)NC2=NCC(C)NN2)c(S)cc1Cl` (centres undefined), the EC50 is above 200 µM and the IC50 stood at 39.8 µM.

With `NC(Cc1c2ccccc2cc2ccccc12)C(=O)O` (centres undefined), the EC50 was above 200 µM and the IC50 is 102 µM.

Take `COc1cc(C(=O)Nc2c3ccccc3nc3ccccc23)cc(OC)c1OC`: the EC50 was above 200 µM and the half-inhibitory concentration (IC50) was above 200 µM.

For the compound `O=C1CSC(/C(=N/Nc2ccccc2)c2nc3ccccc3[nH]2)=N1`, the EC50 is above 15.5 µM and the IC50 was above 15.5 µM.

Take `CN(C)N=Nc1ccc2[nH]c(=O)[nH]c2c1`: the EC50 is above 200 µM and the IC50 turned out to be 102 µM.

As for `c1ccc2c(c1)ncn2CCn1ccnc1`, the EC50 was above 200 µM and the IC50 is above 200 µM.

Turning to `CCCCCC(/C=C/[C@@H]1CC(=O)C[C@H]1O[Si](C)(C)C(C)(C)C)OCOCCOC` (some centres undefined), the EC50 was 5.75 µM and the IC50 worked out at 7.59 µM.

Turning to `CC(C)CC(NC(=O)C(CCC(=O)O)NC(=O)CNC(=O)CNC(=O)C(CO)NC(=O)C(CC(C)C)NC(=O)C(NC(=O)C(CO)NC(=O)C(C)NC(=O)C(CCCNC(=N)N)NC(=O)C(C)NC(=O)CN)C(C)C)C(=O)NC(CC(=O)O)C(=O)NC(CCCNC(=N)N)C(=O)NC(Cc1c[nH]c2ccccc12)C(=O)NC(Cc1ccc(O)cc1)C(N)=O` (centres undefined) (H-GARASVLSGGELDRWY-NH2; configuration not given here), the EC50 was above 145 µM and the IC50 is above 145 µM.

As for `NNC(=O)/C(=C/c1cccc([N+](=O)[O-])c1)NC(=O)c1ccccc1`, the EC50 is above 398 µM and the IC50 is above 398 µM.

`Cc1nc(N)c(N2CCN(C#N)CC2)c(=O)[nH]1`: the EC50 is above 200 µM and the IC50 was above 200 µM.

`COc1cc(Cc2cnc(N)nc2N)cc(OC)c1OC`: the EC50 is above 200 µM and the IC50 is above 200 µM.

On to `Cc1cc(=O)[nH]c2cc(N(C)C)ccc12`, for which the EC50 is above 67.6 µM and the IC50 was above 67.6 µM.

Turning to `Cc1cc(=O)oc(C)c1C(=O)O`, the EC50 is above 200 µM and the IC50 is above 200 µM.

As to `Cc1ccc(C[N+](C)(C)N)cc1C`, the EC50 is above 200 µM and the IC50 is above 200 µM.

Consider `N#CCCC/C(=N\O)C(=O)OCc1ccccc1`, for which the EC50 was above 200 µM and the IC50 is above 200 µM.

Regarding `CC(=O)Nc1ccc(S(=O)(=O)NN=C2CCCC2)cc1`, the EC50 was above 851 µM and the IC50 was found to be 708 µM.

With `CNP(=S)(Oc1cc(Cl)c(Cl)cc1Cl)N1CCN(c2ccc(Cl)cc2)CC1` (centres undefined), the EC50 was above 36.3 µM and the IC50 turned out to be 21.4 µM.

On to `COC(=O)CCCC=C(c1cc(Cl)c(OC)c(C2=NC(C)(C)CO2)c1)c1cc(Cl)c(OC)c(C2=NC(C)(C)CO2)c1`, for which the outcome was inactive.

In the case of `CC1(C)/C(=N\NC(N)=O)C2CCC1C2` (centres undefined), the EC50 was above 200 µM and the IC50 is above 200 µM.

In the case of `O=c1n(-c2ccccc2)c(=O)n2n1C1Cc3ccccc3C12` (centres undefined), the outcome was inactive.

On to `NC(P(=O)(O)O)P(=O)(O)O`, for which the EC50 was above 200 µM and the IC50 is above 200 µM.

`O=C(Cl)c1ccc([As](=O)(O)O)cc1` displayed an EC50 above 200 µM and an IC50 above 200 µM.

As for `CCOC(=O)/C=C1\CCC(C)n2c1nccc2=O` (centres undefined), the EC50 was above 200 µM and the IC50 was 110 µM.

Turning to `CC(C)(C)C(=O)ON1N=NC2C3CC(OCc4ccccc4)(OCc4ccccc4)C(O3)C21` (centres undefined), the EC50 is above 15.8 µM and the IC50 was above 15.8 µM.

For the compound `CC(C)(C)OC(=O)N/N=C(/N)c1ccccc1`, the EC50 was above 200 µM and the IC50 was above 200 µM.

Take `O=C1/C(=C/c2cccc(Cl)c2)Cc2ccccc21`: the EC50 is above 28.2 µM and the IC50 was above 28.2 µM.

Take `CCCCC(C(=O)O)C1=CCCCC1` (centres undefined): the result was inactive.

On to `CCC/C=C/C=C/C(=O)OC1C(C)C2(O)C3C=C(C)C(=O)C3CC(COC(C)=O)=CC2C2C(C)(C)C12OC(=O)C(C)C` (centres undefined), for which the EC50 is 0.977 µM and the IC50 is 1.02 µM.

As to `Cc1ccc(NC(=O)CC/C(CC(=O)C(C)(C)C)=N\Nc2ccc([N+](=O)[O-])cc2[N+](=O)[O-])cc1C`, the EC50 is above 14.8 µM and the IC50 was above 14.8 µM.

Regarding `NNC(=O)c1ccccc1NC(=O)/C(=C/c1ccccc1O)NC(=O)c1ccccc1`, the EC50 is above 200 µM and the IC50 is above 200 µM.

`O=P(c1ccccc1)(c1ccccc1)C1CC=C(c2ccccc2)C2(CCCC2)C1` (centres undefined): the EC50 was above 8.71 µM and the IC50 was above 8.71 µM.

As to `O=C(C[n+]1ccccc1)N/N=C(\Cc1nc2ccc([N+](=O)[O-])cc2[nH]c1=O)C(=O)Nc1cc(Cl)c(Cl)cc1Cl`, the EC50 was above 79.4 µM and the IC50 worked out at 66.1 µM.

For `COc1cc2c(c(OC)c1OC)C(c1ccc3c(c1)OCO3)C1COC(=O)C1C2` (centres undefined), the EC50 was above 91.2 µM and the IC50 was above 91.2 µM.

`C[C@]12CCC(=O)C=C1CC[C@@H]1C2CC[C@]2(C)c3nn(-c4ccccc4)nc3CC12` (some centres undefined): the outcome was inactive.

As for `O=c1cc(-c2ccccc2)nc(-n2[nH]c3c(c2=O)CCCC3)[nH]1`, the EC50 is above 50.1 µM and the IC50 amounted to 1.29 µM.

As to `CNC(=S)NNC(=O)c1c(C)nc2sccn12`, the EC50 is above 933 µM and the IC50 came to 575 µM.

For `CCC[CH2][Ge]([CH2]CCC)([CH2]CCC)[O]C(=O)CCl`, the EC50 was above 32.4 µM and the IC50 was above 32.4 µM.

In the case of `N#C/C(=C\c1cccc(Br)c1)C(=O)c1ccccc1`, the EC50 is above 115 µM and the IC50 came to 50.1 µM.

Take `c1cc2c3ccsc3c3sccc3c2s1`: the EC50 is above 200 µM and the IC50 is above 200 µM.

Regarding `CCOC(=O)c1ncn(CCc2ccc(Cl)cc2)c1C`, the EC50 is above 200 µM and the IC50 was above 100 µM.

On to `COC1=CC(=O)c2ccccc2C1(CCC=C(C)C)C1=NC(C)(C)CO1` (centres undefined), for which the result was inactive.

Consider `O=c1c2ccccc2nnn1N1CCOCC1`, for which the EC50 was above 81.3 µM and the IC50 is above 81.3 µM.

Take `CCC(C)(O)c1cn(-c2ccc(Cl)cc2)nn1` (centres undefined): the EC50 was above 708 µM and the IC50 is 324 µM.

On to `COc1ccc(/C=c2\c(=O)[nH]c3nc4ccccc4c(=O)n23)cc1`, for which the EC50 was above 200 µM and the IC50 is 34.7 µM.

Regarding `O=[N+]([O-])/C(C(Cl)=C(Cl)Cl)=C(/Nc1ccccc1)Sc1ccccc1`, the EC50 is above 200 µM and the IC50 is 23.4 µM.

Consider `COC(=O)C(=O)C(C(=O)C(=O)Nc1ccc(F)cc1)c1nc2ccc([N+](=O)[O-])cc2[nH]c1=O` (centres undefined), for which the EC50 was above 550 µM and the IC50 was 245 µM.

On to `CC(=O)OC1C(CN2CCOC2=O)OC(n2ccc(=O)[nH]c2=O)C1OC(C)=O` (centres undefined), for which the EC50 is above 200 µM and the IC50 was above 200 µM.

As to `Cc1cc2c(oc(=O)c3cc(C)sc32)s1`, the EC50 is above 42.7 µM and the IC50 was above 42.7 µM.

As to `CC1(C(N)=O)OC12CCCCC2` (centres undefined), the EC50 was above 200 µM and the IC50 was above 200 µM.

Turning to `C=CCOC(=O)C1(C)C(=O)CCC1CC/C=C/C(C)=O` (centres undefined), the EC50 is above 129 µM and the IC50 came to 6.03 µM.

Turning to `CCN1CCOC(c2ccccc2)C1c1ccccc1` (centres undefined), the EC50 was above 200 µM and the IC50 was 129 µM.

As for `C[CH2][Sn]([CH2]C)([S]CCS(=O)(=O)O)[S]CCS(=O)(=O)O`, the EC50 is above 200 µM and the IC50 stood at 3.72 µM.

As to `COc1cc(COC(=O)N2CSCC2C(=O)O)c([N+](=O)[O-])cc1OC` (centres undefined), the EC50 is above 676 µM and the IC50 was above 676 µM.

With `COc1cc(O)c2c(=O)c3c(C)cccc3n(C)c2c1`, the EC50 is above 200 µM and the IC50 was 72.4 µM.

As for `O=C(c1cccc(OCc2ccccc2)c1OCc1ccccc1)N1CCSC1=S`, the EC50 is above 200 µM and the IC50 was found to be 9.12 µM.

On to `Nc1ccc(/C=C/c2ccc3cccnc3c2)cc1`, for which the EC50 was 0.0631 µM and the IC50 is above 200 µM.

For the compound `N#Cc1c(-c2ccc(F)cc2)c(-c2ccc(F)cc2)nn(CCO)c1=O`, the EC50 was above 141 µM and the IC50 was found to be 1.48 µM.

On to `COC(=O)[C@@H](NC(=O)N(CCC#N)CCNc1ccccc1)C(C)C`, for which the EC50 is above 200 µM and the IC50 was above 200 µM.

As to `C=Cc1cc[n+](CC(=O)c2ccc(-c3ccccc3)cc2)cc1`, the EC50 is above 200 µM and the IC50 was 45.7 µM.

For `CCOC(=O)CNC(=O)C(Cc1ccccc1)NC(=O)C(C)(C)NC(=O)OCc1ccccc1` (centres undefined) (Cbz-[Aib]-[ξF]-Gly-OEt), the EC50 was above 200 µM and the IC50 is 95.5 µM.

`COC(=O)C(C(=O)C(=O)Nc1ccccc1C)c1nc2ccc([N+](=O)[O-])cc2[nH]c1=O` (centres undefined): the result was inactive.

For the compound `[N-]=[N+]=NC1(c2ccccc2)C(=O)c2cccc3c4ccccc4n(c23)C1=O` (centres undefined), the EC50 was above 200 µM and the IC50 is above 200 µM.

For `CCC(C)C(NC(=O)C(CC(C)C)NC(=O)C(N)Cc1c[nH]c2ccccc12)C(=O)NC(Cc1c[nH]c2ccccc12)C(=O)O` (centres undefined) (H-WLIW-OH; configuration not given here), the EC50 is above 407 µM and the IC50 is above 407 µM.

Consider `CC1CCC(=O)C(C(O)CC2CC(=O)N(c3ccccc3)C(=O)C2)C1` (centres undefined), for which the EC50 was above 200 µM and the IC50 is above 200 µM.

For `CC1(C)SC2C(NC(=O)C(C(=O)O)c3ccccc3)C(=O)N2C1C(=O)O` (centres undefined), the EC50 was above 200 µM and the IC50 was above 200 µM.

For the compound `C=C1CN(Cc2ccccc2)[C@@H]2CCCCC[C@H](C#N)[C@H]12`, the EC50 was above 200 µM and the IC50 was determined as 123 µM.

A word on the EC50: it is the concentration at which the effect is half-maximal. Broadly, the IC50 is the concentration that gives 50% inhibition. High values mean weaker potency in that assay, low ones greater potency in that assay.

The values are drawn from PubChem BioAssay AID179 (DTP/NCI, 2004).
